Test results as given in US7863315B2, “2-indolinone derivatives as selective histone deacetylase inhibitors” (Shenzhen Chipscreen Biosciences, Ltd., priority 2008, dated 2011).

Key:
Assay type in all cases: cell-based
[1] = system: HDAC class I (p21 reporter gene); experiment: HDAC subtype reporter gene assay, p21-promoter luciferase in HeLa cells; details: Homo sapiens, M-HeLa, read-out: % of SAHA Response for HDAC class I at 10 μM (p21 reporter gene), 24 hours
Protocol: (§1) Measurement of inhibition of HDAC subtypes activity in cells by reporter gene assay: HDAC subtype selectivity inhibition assay of tested compounds was carried out by several reporter gene assays experiments. Briefly, HeLa cells were seeded in 96-well plates the day before transfection to give a confluence of 50-80%. Cells were transfected with one of reporter gene plasmids containing a promoter sequences or response elements upstream of a luciferase gene construct using FuGene6 transfection reagent according to the manufacturer's instructions (Roche). The promoters or response elements including p21-promoter, gdf11-promoter, MEF-binding element (MEF2), Nur77-promoter were fused upstream to the luciferase gene reporter construct. For normalizing the transfection efficiency, a GFP expression plasmid was cotransfected. Cells were allowed to express protein for 24 hours followed by addition of individual compounds or the vehicle (DMSO). 24 hours later, the cells were harvested and the luciferase assays were performed using the luciferase assay kit according to the manufacturer's instructions (Promega). To normalize the data from the luciferase assays, GFP activity from transfected cells was measured in a microtiter-plate reading fluorimeter capable of excitation at a wavelength at 485 nm and detection of emitted light at 527 nm.

[2] = system: HDAC3 (gdf11 reporter gene); experiment: HDAC subtype reporter gene assay, gdf11-promoter luciferase in HeLa cells; details: Homo sapiens, M-HeLa, read-out: % of SAHA Response for HDAC3 at 10 μM (gdf11 reporter gene), 24 hours
Protocol: as §1

[3] = system: HDAC4/5 (MEF2 reporter gene); experiment: HDAC subtype reporter gene assay, MEF-binding element (MEF2) luciferase in HeLa cells; details: Homo sapiens, M-HeLa, read-out: % of SAHA Response for HDAC4/5 at 10 μM (MEF2 reporter gene), 24 hours
Protocol: as §1

[4] = system: HDAC7 (Nur77 reporter gene); experiment: HDAC subtype reporter gene assay, Nur77-promoter luciferase in HeLa cells; details: Homo sapiens, M-HeLa, read-out: % of SAHA Response for HDAC7 at 10 μM (Nur77 reporter gene), 24 hours
Protocol: as §1

Measured: Emax at 10 µM

O=C(CCCCCCC(=O)Nc1ccccc1)NO [SAHA, suberoylanilide hydroxamic acid, reference compound]
100%: all assays above
